Test results taken from US4695545A, “Culture and process for producing A41030 antibiotics” (Eli Lilly and Company, priority 1984, dated 1987).
“And” between values parts separate entries of the source, which are not always exact repeats. Identical values can stand only once.

Experiments:
[1] = system: Clostridium septicum; test: MIC anaerobic bacteria, agar-dilution; type: cell-based; settings: Clostridium septicum 1128
[2] = Solubility in solvents; type: physicochemical; settings: qualitative
From the text: As many as seven antibiotic factors are recovered from the fermentation and are obtained as a mixture, the A41030 complex. It will be recognized that the ratio of the factors in the A41030 complex will vary, depending upon the fermentation conditions used. The individual factors A, B, C, D, E, F, and G are separated and isolated as individual compounds, as hereinafter described.

[3] = system: Serratia marcescens; test: MIC aerobic bacteria, standard agar-dilution assay; type: cell-based; settings: Serratia marcescens X99, 24 hours
[4] = system: Bacteroides fragilis; test: MIC anaerobic bacteria, agar-dilution; type: cell-based
[5] = system: Clostridium difficile; test: MIC anaerobic bacteria, agar-dilution; type: cell-based; settings: Clostridium difficile 2994; agar-dilution (Table 9)
[6] = system: Fusobacterium necrophorum; test: MIC anaerobic bacteria, agar-dilution; type: cell-based; settings: Fusobacterium necrophorum 6054A
[7] = system: Bacteroides thetaiotaomicron; test: MIC anaerobic bacteria, agar-dilution; type: cell-based; settings: Bacteroides thetaiotaomicron 1438
[8] = system: Peptostreptococcus anaerobius; test: MIC anaerobic bacteria, agar-dilution; type: cell-based; settings: Peptostreptococcus anaerobius 1428
[9] = system: Bacteroides melaninogenicus; test: MIC anaerobic bacteria, agar-dilution; type: cell-based; settings: Bacteroides melaninogenicus 2736
[10] = system: Streptococcus sp. Group D; test: MIC aerobic bacteria, standard agar-dilution assay; type: cell-based
[11] = system: Propionibacterium acnes; test: MIC against Propionibacterium acnes strains, 24-hour agar-dilution; type: cell-based
From the text: Antibiotic A41030 factors A, B and C have been tested and found to be active against a genus of anaerobic bacteria identified as Propionibacterium acnes.

[12] = system: Escherichia coli; test: MIC aerobic bacteria, standard agar-dilution assay; type: cell-based
[13] = system: Haemophilus influenzae; test: MIC aerobic bacteria, standard agar-dilution assay; type: cell-based
[14] = system: Staphylococcus aureus; test: MIC aerobic bacteria, standard agar-dilution assay; type: cell-based
[15] = system: Propionibacterium acnes; test: MIC anaerobic bacteria, agar-dilution; type: cell-based; settings: Propionibacterium acnes 79; agar-dilution (Table 9)
[16] = system: Peptococcus prevoti; test: MIC anaerobic bacteria, agar-dilution; type: cell-based; settings: Peptococcus prevoti 1281
[17] = system: S. pneumoniae; test: Experimental bacterial infection in mice, subcutaneous ED50; type: in vivo; settings: two doses subcutaneously
Procedure: (§1) All of the A41030 factors tested have shown in vivo antimicrobial activity against experimental bacterial infections. When two doses of test compound were administered subcutaneously to mice in illustrative infections, the activity observed is measured as an ED50 value [effective dose in mg./kg. to protect fifty percent of the test animals: See Warren Wick, et al., J. Bacteriol. 81, 233-235 (1961)].

[18] = system: Staph. aureus; test: as above; type: in vivo; settings: two doses subcutaneously
Procedure: as §1

[19] = system: S. pyogenes; test: as above; type: in vivo; settings: two doses subcutaneously
Procedure: as §1

[20] = system: Streptococcus pneumoniae; test: MIC aerobic bacteria, standard agar-dilution assay; type: cell-based; settings: Streptococcus pneumoniae Park I, 24 hours
[21] = system: Clostridium difficile; test: MIC against Clostridium difficile strains, agar-dilution; type: cell-based
From the text: The A41030 antibiotic factors A, B, C, D, E, F, and G, are also active against a number of strains of Clostridium difficile, as determined by the agardilution method.

[22] = system: Klebsiella pneumoniae; test: MIC aerobic bacteria, standard agar-dilution assay; type: cell-based; settings: Klebsiella pueumoniae X68, 24 hours
[23] = system: Staphylococcus epidermidis; test: MIC aerobic bacteria, standard agar-dilution assay; type: cell-based
[24] = system: Bacteroides corrodens; test: MIC anaerobic bacteria, agar-dilution; type: cell-based; settings: Bacteroides corrodens 1874
[25] = system: S. pyogenes; test: In vivo oral activity against S. pyogenes in mice
[26] = system: Peptococcus asaccharolyticus; test: MIC anaerobic bacteria, agar-dilution; type: cell-based; settings: Peptococcus asaccharolyticus 1302
[27] = system: Enterobacter aerogenes; test: MIC aerobic bacteria, standard agar-dilution assay; type: cell-based; settings: Enterobacter aerogenes C32, 24 hours
[28] = system: Clostridium perfringens; type: cell-based; settings: Clostridium perfringens 81; agar-dilution
[29] = system: Salmonella typhi; test: MIC aerobic bacteria, standard agar-dilution assay; type: cell-based
[30] = system: Citrobacter freundii; test: MIC aerobic bacteria, standard agar-dilution assay; type: cell-based; settings: Citrobacter freundii CF17, 24 hours

**Q.** Which MIC [1] does the source give for A41030 factor B here?
**A.** Its MIC is 4 µg/mL.

**Q.** And the “solubility (solvents)” value [2]?
**A.** The value was “soluble in the same solvents as factor A”.

**Q.** What about the MIC [3] of the same substance?
**A.** The MIC was 128 µg/mL.

**Q.** And the MIC ([4]; Bacteroides fragilis 111)?
**A.** The MIC was 64 µg/mL.

**Q.** And the MIC ([4]; Bacteroides fragilis 1877)?
**A.** Its MIC is 32 µg/mL.

**Q.** And the MIC ([4]; Bacteroides fragilis 1936B)?
**A.** The MIC was 32 µg/mL.

**Q.** What about the MIC [5] of the same substance?
**A.** The MIC was 32 µg/mL.

**Q.** And the MIC [6]?
**A.** Its MIC is 8 µg/mL.

**Q.** What about the MIC [7] of the same substance?
**A.** The MIC was 32 µg/mL.

**Q.** And the MIC [8]?
**A.** Its MIC is no more than 0.25 µg/mL.

**Q.** What about the MIC [9] of the same substance?
**A.** Its MIC is 4 µg/mL.

**Q.** What about the MIC ([10]; Streptococcus sp. Group D 9960, 24 hours) of the same substance?
**A.** The MIC was 1 µg/mL.

**Q.** And the MIC ([10]; Streptococcus sp. Group D X66, 24 hours)?
**A.** The MIC was 1 µg/mL.

**Q.** What about the MIC ([11]; P. acnes strain 44) of the same substance?
**A.** Its MIC is 0.06 µg/mL.

**Q.** What about the MIC ([11]; P. acnes strain 79) of the same substance?
**A.** Its MIC is 0.06 µg/mL.

**Q.** And the MIC ([11]; P. acnes strain 101)?
**A.** The MIC was 0.06 µg/mL.

**Q.** What about the MIC ([11]; P. acnes strain 103) of the same substance?
**A.** The MIC was 0.06 µg/mL.

**Q.** What about the MIC ([11]; P. acnes strain 104) of the same substance?
**A.** Its MIC is 0.25 µg/mL.

**Q.** What about the MIC ([11]; P. acnes strain 105) of the same substance?
**A.** Its MIC is 0.06 µg/mL.

**Q.** What about the MIC ([11]; P. acnes strain 106) of the same substance?
**A.** Its MIC is 0.06 µg/mL.

**Q.** And the MIC ([11]; P. acnes strain 107)?
**A.** The MIC was 0.06 µg/mL.

**Q.** And the MIC ([11]; P. acnes strain 5170)?
**A.** Its MIC is no more than 0.03 µg/mL.

**Q.** What about the MIC ([11]; P. acnes strain 5176) of the same substance?
**A.** The MIC was 0.06 µg/mL.

**Q.** And the MIC ([11]; P. acnes strain 5187)?
**A.** The MIC was 0.06 µg/mL.

**Q.** And the MIC ([11]; P. acnes strain 5191)?
**A.** The MIC was 0.06 µg/mL.

**Q.** What about the MIC ([11]; P. acnes strain 5197) of the same substance?
**A.** The MIC was 0.06 µg/mL.

**Q.** What about the MIC ([11]; P. acnes strain 5226) of the same substance?
**A.** Its MIC is 0.5 µg/mL.

**Q.** What about the MIC ([11]; P. acnes strain 5227) of the same substance?
**A.** The MIC was 0.06 µg/mL.

**Q.** What about the MIC ([11]; P. acnes strain 5228) of the same substance?
**A.** The MIC was 0.5 µg/mL.

**Q.** What about the MIC ([11]; P. acnes strain 5229) of the same substance?
**A.** Its MIC is 0.25 µg/mL.

**Q.** What about the MIC ([11]; P. acnes strain 5246) of the same substance?
**A.** The MIC was 0.125 µg/mL.

**Q.** What about the MIC ([11]; P. acnes strain 5292) of the same substance?
**A.** The MIC was 0.06 µg/mL.

**Q.** What about the MIC ([12]; Escherichia coli EC14, 24 hours) of the same substance?
**A.** Its MIC is 128 µg/mL.

**Q.** And the MIC ([12]; Escherichia coli N10, 24 hours)?
**A.** Its MIC is 128 µg/mL.

**Q.** What about the MIC ([12]; Escherichia coli TEM, 24 hours) of the same substance?
**A.** The MIC was 128 µg/mL.

**Q.** What about the MIC ([13]; Haemophilus influenzae 251, 24 hours) of the same substance?
**A.** The MIC was 2 µg/mL.

**Q.** What about the MIC ([13]; Haemophilus influenzae Brun, 24 hours) of the same substance?
**A.** The MIC was 8 µg/mL.

**Q.** What about the MIC ([14]; Staphylococcus aureus S13E, agar-dilution, 24 hours) of the same substance?
**A.** Its MIC is 0.125 µg/mL.

**Q.** And the MIC ([14]; in µg/mL)?
**A.** Its MIC is 0.125 and 0.25.

**Q.** What about the MIC [15] of the same substance?
**A.** Its MIC is 16 µg/mL.

**Q.** What about the MIC [16] of the same substance?
**A.** The MIC was no more than 0.25 µg/mL.

**Q.** What about the ED50 [17] of the same substance?
**A.** Its ED50 is 1.4 mg/kg.

**Q.** And the ED50 [18]?
**A.** The ED50 was less than 0.43 mg/kg.

**Q.** And the ED50 [19]?
**A.** Its ED50 is 1.4 mg/kg.

**Q.** What about the MIC [20] of the same substance?
**A.** The MIC was 0.5 µg/mL.

**Q.** What about the MIC ([21]; Clostridium difficile 78) of the same substance?
**A.** Its MIC is 0.5 µg/mL.

**Q.** And the MIC ([21]; Clostridium difficile 107B)?
**A.** The MIC was 0.5 µg/mL.

**Q.** What about the MIC ([21]; Clostridium difficile 111F) of the same substance?
**A.** Its MIC is 1.0 µg/mL.

**Q.** What about the MIC ([21]; Clostridium difficile 1153) of the same substance?
**A.** Its MIC is 1.0 µg/mL.

**Q.** And the MIC ([21]; Clostridium difficile 2634)?
**A.** The MIC was 1.0 µg/mL.

**Q.** And the MIC ([21]; Clostridium difficile 3424-5B)?
**A.** Its MIC is 1.0 µg/mL.

**Q.** What about the MIC ([21]; Clostridium difficile 3816) of the same substance?
**A.** Its MIC is 1.0 µg/mL.

**Q.** And the MIC ([21]; Clostridium difficile 3950D)?
**A.** The MIC was 1.0 µg/mL.

**Q.** And the MIC ([21]; Clostridium difficile 6890)?
**A.** Its MIC is 1.0 µg/mL.

**Q.** What about the MIC ([21]; Clostridium difficile 8484) of the same substance?
**A.** The MIC was 1.0 µg/mL.

**Q.** What about the MIC ([21]; Clostridium difficile A-194) of the same substance?
**A.** The MIC was 1.0 µg/mL.

**Q.** What about the MIC ([21]; Clostridium difficile A-195) of the same substance?
**A.** Its MIC is 1.0 µg/mL.

**Q.** And the MIC ([21]; Clostridium difficile A-196)?
**A.** Its MIC is 1.0 µg/mL.

**Q.** What about the MIC ([21]; Clostridium difficile A-279) of the same substance?
**A.** Its MIC is 1.0 µg/mL.

**Q.** And the MIC ([21]; Clostridium difficile A-280)?
**A.** The MIC was 0.5 µg/mL.

**Q.** What about the MIC ([21]; Clostridium difficile A-281) of the same substance?
**A.** The MIC was 1.0 µg/mL.

**Q.** And the MIC ([21]; Clostridium difficile WAL-2112)?
**A.** The MIC was 1.0 µg/mL.

**Q.** What about the MIC ([21]; Clostridium difficile WAL-3657) of the same substance?
**A.** The MIC was 1.0 µg/mL.

**Q.** And the MIC ([21]; Clostridium difficile WAL-4268)?
**A.** Its MIC is 0.5 µg/mL.

**Q.** What about the MIC [22] of the same substance?
**A.** The MIC was 128 µg/mL.

**Q.** What about the MIC ([23]; Staphylococcus epidermidis EPI1, 24 hours) of the same substance?
**A.** Its MIC is 0.125 µg/mL.

**Q.** What about the MIC ([23]; Staphylococcus epidermidis EPI2, 24 hours) of the same substance?
**A.** Its MIC is 0.5 µg/mL.

**Q.** What about the MIC [24] of the same substance?
**A.** Its MIC is 64 µg/mL.

**Q.** And the “in vivo oral activity” value [25]?
**A.** The value was greater than 300 mg./kg.×2.

**Q.** And the MIC [26]?
**A.** Its MIC is no more than 0.25 µg/mL.

**Q.** And the MIC [27]?
**A.** The MIC was 64 µg/mL.

**Q.** And the MIC [28]?
**A.** The MIC was 0.5 µg/mL.

**Q.** And the MIC ([29]; Salmonella typhi 1335, 24 hours)?
**A.** Its MIC is greater than 128 µg/mL.

**Q.** And the MIC ([29]; Salmonella typhi X514, 24 hours)?
**A.** Its MIC is greater than 128 µg/mL.

**Q.** And the MIC [30]?
**A.** Its MIC is 128 µg/mL.
